Consider one molecule from US20200038514A1, “FOLATE CONJUGATE FOR USE IN TARGETING TUMOR ASSOCIATED MACROPHAGES” (ENDOCYTE, INC., priority 2016, published 2020).

For data set [1], the system named is 4T1-C12 tumor (FRα-positive). As to the kind of experiment: Single-agent activity in vivo, 4T1-C12 mammary tumors. Set-up: species or system mice. Conditions: 0.2 μmol/kg i.v., BIW×4 doses. From the text:
Female Balb/c mice (4T1p, 4T1-C12) were purchased from Envigo (Indianapolis, Ind.) and used when they reached 6-8 weeks of age. The mice were fed a folate-deficient diet (TestDiet, St. Louis, Mo.) on the day of arrival.
Solid tumors in Balb/c mice were generated by subcutaneous implantation of cultured cells at 5×10^5 (4T1p) and 2×10^6 (4T1-C12) per animal in the mammary region.
Starting on day 0, mice with mammary 4T1p (˜78.3±12.1 mm^3) and 4T1-C12 (˜70.1±14.1 mm^3) were scheduled to receive Conjugate 5 at 200 nmol/kg, biweekly for two weeks. 4T1p tumor bearing mice received a total of 3 doses only and 4T1-C12 tumor bearing mice received a total of 4 doses as planned. Mice were weighed and measured for tumor size 3 times a week. The tumor volumes were calculated by the following formula: V=0.5×a×b^2, where a is the longest axis across the tumor, and b is the shorter axis perpendicular to a. The animals were euthanized when the tumor volume reached ˜1500 mm^3. Mice were also monitored closely for the evidence of toxicity such as respiratory distress, mobility, weight loss, diarrhea, hunched posture, and failure to eat. The last Conjugate 5 dose in the 4T1p tumor-bearing mice was skipped due to weight loss.

A further data set has as its system IGROV1 cells. As to the kind of experiment: Clonogenic assay, IGROV1. It counts as cell-based, human. The following applies: 2 hour exposure, 9-day chase. As to the method: IGROV1 cells seeded in 6-well plates (1000 cells/well) were exposed for 2 hours to Conjugate 5 at 1, 10, and 100 nM and followed by a 9-day chase in drug-free medium. Afterwards, the cells were washed with PBS and fixed for 5 minutes in a 3:1 methanol:acetic acid solution. The cells were then stained with 0.5% crystal violet/methanol solution for 15 minutes and washed with tap water. After a drying step, the colonies were photographed and counted using the ImageJ software.
Afterwards, the cells were washed with PBS and fixed for 5 minutes in a 3:1 methanol:acetic acid solution. The cells were then stained with 0.5% crystal violet/methanol solution for 15 minutes and washed with tap water. After a drying step, the colonies were photographed and counted using the ImageJ software.

A further data set concerns KB tumor. In words: In vivo activity against KB tumors in mice. Conditions: 0.5 μmol/kg once a week for two weeks. From the text:
Treatment with 0.5 μmol/kg of Conjugate 5, once a week for two weeks also produced maximal anti-tumor activity with 100% cures. Change in weight is shown in FIG. 2B for test mice dosed at 0.5 μmol/kg Conjugate 5 SIW for two weeks (▴) compared to untreated control (▪).

The test system of another data set is ST070 ovarian PDX tumors. As to the kind of experiment: In vivo activity against ovarian tumors. Also on record: species or system mice. As to the method:
(§1) Mice were maintained and tumor volumes were measures according to Method 3.
Primary human Ovarian model ST070 fragments (2-4 mm in diameter) were inoculated subcutaneously at the right flank of each mouse. Mice were randomized into experimental groups of 7 mice each and test articles were injected through the lateral tail vein under sterile conditions in a volume of […] of phosphate-buffered saline (PBS).

The subject of a further data set is TNBC PDX tumor. In words: In vivo activity against triple negative breast tumors (FIG. 10). Set-up: species or system mice. The following applies: Conjugate 5 0.27 μmol/kg BIW two weeks; erubulin mesylate 1.0 μmol/kg SIW two weeks. As to the method:
as §1
(§2) Primary human TNBC model ST502 (2-4 mm in diameter) or primary human TNBC model ST738 (2-4 mm in diameter) were inoculated subcutaneously at the right flank of each mouse. Mice were randomized into experimental groups of 7 mice each and test articles were injected through the lateral tail vein under sterile conditions in a volume of […] of phosphate-buffered saline (PBS).

Another data set concerns 4T1-C12 tumor cells. In words: XTT cell viability assay, 4T1-C12. Format: cell-based, mouse. Conditions: FRα-positive 4T1-C12, 2 hours exposure, 96 hour chase. As to the method:
The FRα− and FRα+ expressing cell lines utilized to evaluate Conjugate 5 activity in-vitro and/or ex-vivo studies were (1) 4T1p, a mouse breast cancer cell line that resembles triple negative breast cancer in humans, (2) 4T1-C12, 4T1p stably transfected with a mouse FRa, and (3) IGROV1, a human ovarian carcinoma cell line that expresses the human FRα. 4T1p and 4T1-C12 cells were grown respectively in a folate-replete or folate-free RPMI1640 medium (Gibco BRL) (FFRPMI) containing 10% heat-inactivated fetal calf serum (HIFCS) and antibiotics, and maintained under a 5% CO2 atmosphere using standard cell culture techniques. IGROV1 cells were grown in the same medium as 4T1-C12.
4T1p and 4T1-C12 tumor cells in 96-well plates (20,000 cells/well) were treated with 10-fold serial dilutions of Conjugate 5 (100 nM) in FFRPMI medium. After a 2 hour exposure, the drug-containing media were replaced and the cells were washed and allowed to incubate further for 96 hours. The cell viability was assessed by adding XTT (2,3-bis(2-methoxy-4-nitro-5-sulfo-phenyl)-2H-tetrazolium-5-carboxanilide) to the culture medium for 2 hours following the manufacturer's instructions. All results were expressed as % absorbance (minus background) relative to the untreated control cells.
In general terms: Tetrazolium dyes change colour on reduction, which living cells bring about.

The next data set relates to ST502 TNBC PDX tumors. In words: In vivo activity against triple negative breast tumors (FIG. 5). Set-up: species or system mice. As to the method:
as §1, §2

The next data set relates to ID8-C115 ascites tumors. As to the kind of experiment: Conjugate 5 versus EC1456 against various stages of ID8-C115 ascites tumors, survival. Format: in vivo, mice. The source says: Mouse ascites tumors were generated by intra-peritoneal implantation of cultured cells at 5×10^6 in C57BL/6 mice.
In a first experiment (P-1836), all treatment started 7 days after the tumors were implanted. The mice were intravenously dosed with Conjugate 5 at 0.1 μmol/kg twice-per-week for a total of 6 doses (BIW×3). […] In a second experiment (P-1846), Conjugate 5 treatment started 21 days after the tumors were implanted. The mice were intravenously dosed with Conjugate 5 at 0.1 μmol/kg for 3 consecutive days each week for 3 weeks (D0-2×3, 9 doses). […] In a third experiment (P-1861), Conjugate 5 treatment started 35 days after the tumors were implanted. The mice were intravenously dosed with Conjugate 5 at 0.3 μmol/kg once-a-week for 2 consecutive weeks (SIW×2, 2 doses). […] In a fourth experiment (P-1836), Conjugate 5 treatment started 43 days after the tumors were implanted. The mice were intravenously dosed with Conjugate 5 at 0.3 μmol/kg once-a-week for 2 consecutive weeks (SIW×2, 2 doses). […] All mice were weighed 3 times/week and assessed for any clinical sign of swollen bellies indicative of ascites formation and for evidence of toxicity including respiratory distress, mobility, weight loss, diarrhea, hunched posture, and failure to eat. Once the animals developed ascites, they were monitored daily and euthanized when ascites became severe (rounded and walking on tip toes).

The structures appear in SMILES notation.

Turning to `C=C1C[C@H]2C=Nc3cc(OCCCCCOc4cc(N)c(C(=O)N5CC(=C)C[C@H]5C5OCCN5C(=O)OCC(C)(C)SSCCC(=O)NCCNC(=O)CCOCCOCCOCCOCCNC(=O)CCN5C(=O)CC(SC[C@H](NC(=O)[C@H](CC(=O)O)NC(=O)[C@H](CC(=O)O)NC(=O)[C@H](CCCNC(=N)N)NC(=O)[C@H](CC(=O)O)NC(=O)CC[C@H](NC(=O)c6ccc(NCc7cnc8nc(N)[nH]c(=O)c8n7)cc6)C(=O)O)C(=O)O)C5=O)cc4OC)c(OC)cc3C(=O)N2C1` (some centres unmarked) [Conjugate 5], the body weight entry in data set [1] was “significant weight loss”. For the same molecule, in the data set with IGROV1 cells (1, 10, 100 nM), the clonogenic activity result is on record as “potent activity at all concentrations”. Also, the “clonogenic activity, comparison Conjugate 5 and EC1456” value in the data set on IGROV1 cells (1, 10, 100, 1000 nM) is on record as “potent activity at all concentrations tested”. In addition, the “clonogenic anti-tumor activity in the presence of excess folic acid” value in the data set on IGROV1 cells (1 and 10 nM, excess folic acid) was “significantly reduced”. Besides, in the data set with KB tumor, the cures amounted to 100%. In addition, the “cure (number of mice)” value in the data set on ST070 ovarian PDX tumors (0.5 μmol/kg SIW for two weeks, n=7) turned out to be 7; in the data set with ST502 TNBC PDX tumors (0.3 μmol/kg BIW for two weeks, n=7), 7. Besides, in the data set on ST070 ovarian PDX tumors (Conjugate 5 0.5 μmol/kg SIW, EC1456 4.0 μmol/kg SIW, paclitaxel 15 mg/kg SIW, two weeks), the “ovarian PDX tumor size compared to untreated control” value is given as “decreased ovarian PDX tumor size”. The “TNBC PDX tumor size compared to untreated control” value with TNBC PDX tumor was “decreased TNBC PDX tumor size”; with ST502 TNBC PDX tumors (Conjugate 5 0.3 μmol/kg BIW two weeks, EC1456 2.0 μmol/kg BIW two weeks), “decreased TNBC PDX tumor size”. Besides, the “activity in the presence of excess folic acid” value in the data set with 4T1-C12 tumor cells (excess folic acid) is recorded as “partially reversible”. Also, the IC50 in the data set on 4T1-C12 tumor cells (read-out: relative IC50, inhibition of cell proliferation) is about 8.7 nM. The median survival time in the data set on ID8-C115 ascites tumors (7-day-old tumors, Conjugate 5 0.1 mol/kg BIW×6 doses, EC1456 2 mol/kg BIW×6 doses, untreated ~46 days) is on record as about 77 days post tumor implant; in the data set with ID8-C115 ascites tumors (21-day-old tumors, Conjugate 5 0.1 mol/kg D0-2×3, 9 doses, EC1456 2 μmol/kg D0-2×, 9 doses (two remaining animals), untreated ~46 days), about 76 days; in the data set with ID8-C115 ascites tumors (35-day-old tumors, Conjugate 5 0.3 μmol/kg SIW×2, 2 doses, EC1456 2 mol/kg D0-2×2, 4 doses, untreated ~42 days), about 64 days post tumor implant; in the data set on ID8-C115 ascites tumors (43-day-old tumors, Conjugate 5 0.3 μmol/kg SIW×2, 2 doses, EC1456 2 mol/kg D0-2×1, 3 doses, untreated ~46 days) it was about 57 days post tumor implant. In addition, the toxicity observed entry in the data set with ID8-C115 ascites tumors (21-day-old tumors, Conjugate 5 0.1 mol/kg D0-2×3, 9 doses, EC1456 2 μmol/kg D0-2×, 9 doses) is reported as “mild ataxia”.
